# According to patent publication US10428018B2, “ROR gamma (RORy) modulators” (LEAD PHARMA HOLDING B.V., priority 2015, dated 2019):
# pIC50: −log10 of the molar value.
# Target: T1, RORγ (Homo sapiens, UniProt P51449)
# T1 construct: expressed in transfected cells; host or cells: 293FT cells (Invitrogen), expression vector pFN26A (Promega)
# T1 sequence (P51449 269-508 limits assumed): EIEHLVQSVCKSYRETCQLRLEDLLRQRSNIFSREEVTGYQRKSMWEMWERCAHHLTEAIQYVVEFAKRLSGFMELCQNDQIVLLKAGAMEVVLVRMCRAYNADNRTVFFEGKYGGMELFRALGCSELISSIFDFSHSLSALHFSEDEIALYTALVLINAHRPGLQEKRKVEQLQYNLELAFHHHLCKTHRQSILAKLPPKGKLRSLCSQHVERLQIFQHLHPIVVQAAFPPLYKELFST
# Test: RORγ GAL4 reporter gene assay (luciferase readout, 293FT cells)
# Type: cell-based
# Settings: inhibition of RORγ (GAL4-RORγ-LBD) luciferase signal in transfected 293FT cells, overnight incubation; read-out: mean pIC50 (converted)
# Procedure: Example inhibitors 1-45 were tested for their ability to inhibit RORγ activity in a RORγ GAL4 reporter gene assay.
# The RORγ ligand-binding domain (LBD) was fused to the yeast GAL4 DNA binding domain (DBD) and placed under the control of the human cytomegalovirus (CMV) immediate early promoter, using expression vector pFN26A (Promega) and standard recombinant DNA cloning methods.
# To monitor the inhibitory effect of compounds on RORγ, a transcriptional reporter construct was used. The pGL4.35 vector (Promega) contains nine copies of the GAL4 Upstream Activator Sequence (UAS). This sequence drives the transcription of the luciferase reporter gene luc2P in response to binding of a fusion protein containing the GAL4 DNA binding domain, as for example expressed by the GAL4-RORγ-LBD and GAL4-VP16 expression vectors described above.
# The day after transfection, cells were plated into 96 well plates, test compound was added and the plates were incubated overnight. Subsequently, the firefly luciferase activity was quantified using luciferase detection reagent and luminescence readout.
# 1500 μL of this reagent mixture was added to 5 μg of GAL4 fusion protein expression vector and 5 μg of the transcriptional reporter construct, and incubated at RT for 20 minutes.
# Subsequently, the cells were washed with Phosphate Buffered Saline (PBS) (Lonza), after which the PBS was removed. To dissociate the cells, 1 ml of TrypLE Express (Invitrogen) was added to the flask, followed by incubation at RT until the cells visually started to detach. Cells were collected in 5 mL of assay medium (DMEM culture medium (Lonza), 10% dialyzed FBS (Invitrogen) and Pen/Strep (Lonza)) to achieve a single cell suspension. 10×10^6 cells were spun down and re-suspended in 10 mL of assay medium.
# For compound screening, the cells were harvested (as described above) and counted. […] 80 μL of cell suspension (60,000 cells) was plated per well into a white, flat bottom, tissue culture treated, 96 well screening plates (Greiner).
# Subsequently, these solutions were diluted to 5× the final test concentration in two 10-fold-dilution steps in assay medium. The final DMSO concentration of the 5× test compound solution was 1%. 20 μL of the 5× test compound solution was added to each test well of the 96 well plate previously plated with 80 μl cell suspension, resulting in the final test concentration with 0.2% DMSO.
# For the luciferase readout, the luciferase reagent (Britelite Plus, Perkin Elmer) was brought to RT. To each test well of the screening plates, 100 μL of 2.5-fold diluted Britelite Plus reagent was added, followed by incubation at RT for 10 minutes. The luciferase luminescence signal was measured using a Wallac Victor Microplate Reader (Perkin Elmer).
row,IC50 [µM],Compound
1,≤ 1,"CCS(=O)(=O)c1ccc(CC(=O)Nc2ccc(C(=O)N(C)c3cc(C)on3)cc2)cc1 [Example 1, 4-{2-[4-(ethanesulfonyl)phenyl]acetamido}-N-methyl-N-(5-methyl-1,2-oxazol-3-yl)benzamide]"
2,≤ 0.1,"CCN(C(=O)c1ccc(NC(=O)Cc2ccc(S(=O)(=O)CC)cc2)cc1)c1cc(C)nn1C [Example 2, N-(1,3-dimethyl-1H-pyrazol-5-yl)-4-{2-[4-(ethanesulfonyl)phenyl]acetamido}-N-ethylbenzamide]"
3,≤ 0.1,"CCN(C(=O)c1ccc(NC(=O)Cc2ccc(S(=O)(=O)CC)cc2)cc1)c1cc(C)no1 [Example 3, 4-{2-[4-(ethanesulfonyl)phenyl]acetamido}-N-ethyl-N-(3-methyl-1,2-oxazol-5-yl)benzamide]"
4,≤ 0.01,"CCS(=O)(=O)c1ccc(CC(=O)Nc2ccc(C(=O)N(c3ccccc3)C(C)(C)C3CCCO3)cc2)cc1 (centres unmarked) [Example 18, 4-{2-[4-(ethanesulfonyl)phenyl]acetamido}-N-[2-(oxolan-2-yl)propan-2-yl]-N-phenylbenzamide]"
5,≤ 1,"CCS(=O)(=O)c1ccc(CC(=O)Nc2ccc(C(=O)N(C)c3ccccn3)cc2)cc1 [Example 23, 4-{2-[4-(ethanesulfonyl)phenyl]acetamido}-N-methyl-N-(pyridin-2-yl)benzamide]"
6,≤ 1,"CCN(C(=O)c1ccc(NC(=O)Cc2ccc(S(=O)(=O)CC)cc2)nc1)c1ccccc1 [Example 24, 6-{2-[4-(ethanesulfonyl)phenyl]acetamido}-N-ethyl-N-phenylpyridine-3-carboxamide]"
7,≤ 0.1,"CCCN(Cc1ccccc1)C(=O)c1ccc(NC(=O)Cc2ccc(S(=O)(=O)CC)cc2)cc1 [Example 25, N-benzyl-4-{2-[4-(ethanesulfonyl)phenyl]acetamido}-N-propylbenzamide]"
8,≤ 1,"CCS(=O)(=O)c1ccc(CC(=O)Nc2ccc(C(=O)N(C)Cc3ccccc3)cc2)cc1 [Example 26, N-benzyl-4-{2-[4-(ethanesulfonyl)phenyl]acetamido}-N-methylbenzamide]"
9,≤ 1,"CCCN(CC1CC1)C(=O)c1ccc(NC(=O)Cc2ccc(S(=O)(=O)CC)cc2)cc1 [Example 27, N-(cyclopropylmethyl)-4-{2-[4-(ethanesulfonyl)phenyl]acetamido}-N-propylbenzamide]"
10,≤ 0.1,"CCS(=O)(=O)c1ccc(CC(=O)Nc2ccc(C(=O)N3CCCc4ccccc43)cc2)cc1 [Example 28, 2-[4-(ethanesulfonyl)phenyl]-N-[4-(1,2,3,4-tetrahydroquinoline-1-carbonyl)phenyl]acetamide]"
11,≤ 1,"CCS(=O)(=O)c1ccc(CC(=O)Nc2ccc(C(=O)N3CCCC3c3ccccc3)cc2)cc1 (centres unmarked) [Example 29, 2-[4-(ethanesulfonyl)phenyl]-N-[4-(2-phenylpyrrolidine-1-carbonyl)phenyl]acetamide]"
12,≤ 0.1,"CCS(=O)(=O)c1ccc(CC(=O)Nc2ccc(C(=O)N(C)c3ccccc3)cc2)cc1 [Example 30, 4-{2-[4-(ethanesulfonyl)phenyl]acetamido}-N-methyl-N-phenylbenzamide]"
13,≤ 0.1,"CCCN(C(=O)c1ccc(NC(=O)Cc2ccc(S(=O)(=O)CC)cc2)cc1)c1cccnc1 [Example 31, 4-{2-[4-(ethanesulfonyl)phenyl]acetamido}-N-propyl-N-(pyridin-3-yl)benzamide]"
14,≤ 1,"CCN(C(=O)c1ccc(NC(=O)Cc2ccc(S(=O)(=O)CC)cc2)cc1)c1cccnc1 [Example 32, 4-{2-[4-(ethanesulfonyl)phenyl]acetamido}-N-ethyl-N-(pyridin-3-yl)benzamide]"
15,≤ 0.1,"CCS(=O)(=O)c1ccc(CC(=O)Nc2ccc(C(=O)N3CCCCC3c3ccccc3)cc2)cc1 (centres unmarked) [Example 33, 2-[4-(ethanesulfonyl)phenyl]-N-[4-(2-phenylpiperidine-1-carbonyl)phenyl]acetamide]"
16,≤ 0.01,"CCN(C(=O)c1ccc(NC(=O)Cc2ccc(S(=O)(=O)CC)cc2)cc1)c1ccccc1 [Example 34, 4-{2-[4-(ethanesulfonyl)phenyl]acetamido}-N-ethyl-N-phenylbenzamide]"
17,≤ 1,"CCS(=O)(=O)c1ccc(CC(=O)Nc2ccc(C(=O)N(C3CCC3)C3CCC3)cc2)cc1 [Example 35, N, N-dicyclobutyl-4-{2-[4-(ethanesulfonyl)phenyl]acetamido}benzamide]"
18,≤ 1,"CCS(=O)(=O)c1ccc(CC(=O)Nc2ccc(C(=O)N(C)Cc3ccco3)cc2)cc1 [Example 37, 4-{2-[4-(ethanesulfonyl)phenyl]acetamido}-N-(furan-2-ylmethyl)-N-methylbenzamide]"
19,≤ 0.1,"CCS(=O)(=O)c1ccc(CC(=O)Nc2ccc(C(=O)N(Cc3ccccc3)Cc3ccccc3)cc2)cc1 [Example 38, N,N-dibenzyl-4-{2-[4-(ethanesulfonyl)phenyl]acetamido}benzamide]"
20,≤ 1,"CCS(=O)(=O)c1ccc(CC(=O)Nc2ccc(C(=O)N(c3ccccn3)C3CC3)cc2)cc1 [Example 40, N-cyclopropyl-4-{2-[4-(ethanesulfonyl)phenyl]acetamido}-N-(pyridin-2-yl)benzamide]"
21,≤ 1,"CCS(=O)(=O)c1ccc(CC(=O)Nc2ccc(C(=O)N(c3ccccn3)C3CCC3)cc2)cc1 [Example 41, N-cyclobutyl-4-{2-[4-(ethanesulfonyl)phenyl]acetamido}-N-(pyridin-2-yl)benzamide]"
22,≤ 0.1,"CCS(=O)(=O)c1ccc(CC(=O)Nc2ccc(C(=O)N(c3ccc(C)cc3)C(C)(C)CO)cc2)cc1 [Example 42, 4-{2-[4-(ethanesulfonyl)phenyl]acetamido}-N-(1-hydroxy-2-methylpropan-2-yl)-N-(4-methylphenyl)benzamide]"
23,≤ 1,"CCN(C(=O)c1ccc(NC(=O)Cc2ccc(S(=O)(=O)CC)nc2)cc1F)c1ccccc1 [Example 43, 4-{2-[6-(ethanesulfonyl)pyridin-3-yl]acetamido}-N-ethyl-2-fluoro-N-phenylbenzamide]"
24,≤ 0.1,"CCS(=O)(=O)c1ccc(CC(=O)Nc2ccc(C(=O)N(c3ccccc3)C(C)(C)C)cc2)cn1 [Example 44, N-tert-butyl-4-{2-[6-(ethanesulfonyl)pyridin-3-yl]acetamido}-N-phenylbenzamide]"

# Tested on: IL-17A production in anti-CD3/anti-CD28 stimulated peripheral blood mononuclear cells (PBMCs)
# Test: Peripheral blood mononuclear cell (PBMC) IL-17 assay
# Settings: Homo sapiens, 120 h, read-out:
# Procedure: This assay is designed to measure the levels of IL-17A secreted from anti-CD3/anti-CD28 stimulated PBMCs with the aim of measuring RORγ mediated inhibition of IL-17A production.
# The assay medium consists of 90% RPMI 1640 (Lonza), 10% heat inactivated fetal bovin serum (FBS, Lonza) and 100 U/mL penicillin/streptomycin solution.
# Anti-CD3 antibody (BD Pharmingen) was diluted to 10 μg/ml in PBS (Lonza). 30 μL of 10 μg/ml anti-CD3 solution was added to the inner 60 wells, excluding any negative control wells, of a 96-well cell culture treated U-bottom plate (Greiner). Plates were incubated overnight (16-24 hours) at 37° C. and 5% CO2.
# Peripheral blood mononuclear cells were separated from buffy coats (Sanquin) using Ficoll-Paque PREMIUM separation medium (GE Healthcare Life Sciences) according to manufacturer's protocol and re-suspended in assay medium at 37° C.
# Test compounds were diluted, starting from a 10 mM dimethylsulfoxide (DMSO) stock solution, to serial dilutions in DMSO at 200× the final test concentration. Subsequently, these solutions were diluted in two dilution steps in assay medium to 10× the final test concentration. The DMSO concentration of the 10× test compound solution was 5%.
# Anti-CD28 antibody (BD Pharmingen) was diluted to 20 μg/mL in PBS.
# For compound screening, the anti-CD3 coated plates were washed three times with PBS, the wells were subsequently aspirated using vacuum. To each screening well 80 μL of the PBMC suspension, 10 μL of the anti-CD28 solution and 10 μL of the 1 Ox test compound solution was added, resulting in the final test concentration with 0.5% DMSO. All outer wells were filled with assay medium to prevent evaporation. Plates were incubated for 5 days at 37° C. and 5% CO2.
# After incubation the plates were spun down at 1500 rpm for 4 minutes and the supernatant was collected. Subsequently, the IL-17A levels in the supernatants was determined using an IL-17 ELISA kit (human IL-17 DuoSet, R&D systems) according to manufacturer's protocol.
# The half maximum inhibitory concentration (IC50) values for the test compounds were calculated from the IL-17A signal using GraphPad Prism software (GraphPad Software).
row,Compound,pIC50
1,"CCN(C(=O)c1ccc(NC(=O)Cc2ccc(S(=O)(=O)CC)cc2)cc1)c1nc(C)c(C)s1 [Example 13, N-(4-methyl-5-methyl-1,3-thiazol-2-yl)-4-{2-[4-(ethanesulfonyl)phenyl]acetamido}-N-ethylbenzamide]",≥ 7.00

# Same assay, conditions: Homo sapiens, 120 h, read-out: mean pIC50, inhibition of IL-17A secretion (ELISA), human PBMCs, anti-CD3/anti-CD28 stimulated, 5 days (converted)
row,Compound,IC50 [µM]
1,"CCN(C(=O)c1ccc(NC(=O)Cc2ccc(S(=O)(=O)CC)cc2)cc1)c1cc(C)nn1C [Example 2, N-(1,3-dimethyl-1H-pyrazol-5-yl)-4-{2-[4-(ethanesulfonyl)phenyl]acetamido}-N-ethylbenzamide]",≤ 0.1
2,"CCCN(C(=O)c1ccc(NC(=O)Cc2ccc(S(=O)(=O)CC)cc2)cc1)c1cc(C)on1 [Example 5, 4-{2-[4-(ethanesulfonyl)phenyl]acetamido}-N-(5-methyl-1,2-oxazol-3-yl)-N-propylbenzamide]",≤ 0.1
3,"CCCN(C(=O)c1ccc(NC(=O)Cc2ccc(S(=O)(=O)CC)cc2)cc1)c1cc(C)nn1C [Example 6, N-(1,3-dimethyl-1H-pyrazol-5-yl)-4-{2-[4-(ethanesulfonyl)phenyl]acetamido}-N-propylbenzamide]",≤ 0.1
4,"CCS(=O)(=O)c1ccc(CC(=O)Nc2ccc(C(=O)N(c3ccc(C)cc3)C(C)(C)C3CCCO3)cc2)cc1 (centres unmarked) [Example 17, 4-{2-[4-(ethanesulfonyl)phenyl]acetamido}-N-(4-methylphenyl)-N-[2-(oxolan-2-yl)propan-2-yl]benzamide]",≤ 0.1
5,"CCS(=O)(=O)c1ccc(CC(=O)Nc2ccc(C(=O)N(c3ccccc3)C(C)(C)C3CCCO3)cc2)cc1 (centres unmarked) [Example 18, 4-{2-[4-(ethanesulfonyl)phenyl]acetamido}-N-[2-(oxolan-2-yl)propan-2-yl]-N-phenylbenzamide]",≤ 0.1
6,"CCS(=O)(=O)c1ccc(CC(=O)Nc2ccc(C(=O)N(c3ccccc3)C3CC(F)(F)C3)cc2)cc1 [Example 21, N-(3,3-difluorocyclobutyl)-4-{2-[4-(ethanesulfonyl)phenyl]acetamido}-N-phenylbenzamide]",≤ 0.1
7,"CCS(=O)(=O)c1ccc(CC(=O)Nc2ccc(C(=O)N(c3ccccc3)C(C)(C)C)cc2)cn1 [Example 44, N-tert-butyl-4-{2-[6-(ethanesulfonyl)pyridin-3-yl]acetamido}-N-phenylbenzamide]",≤ 0.1
